Where two headings read alike, the source gives them in different places. Where a SMILES comes first, the peptide text is derived from it. Where no end group is shown, it is not given here.
What was measured:
[1] = tested on: yeast (Saccharomyces cerevisiae); test: Disc diffusion assay of yeast growth inhibition (FIG. 1 A-G); type: cell-based
Text: The data shown in FIG. 1(h)-(n) are for the highly resistant yeast Candida glabrata which is difficult to treat due to its high intrinsic resistance to traditional antifungals. The data shown in FIGS. 1(o)-(u) are for Candida albicans. As above, the panels (h) through (u) show the effect of an echinocandin compound, an antimicrobial peptide and a combination of the two on Candida glabrata and Candida albicans.
Sterile filter paper discs (6 mm, Aa, Whatman) were impregnated with either, peptides or caspofungin alone, or peptides and caspofungin together, and left in sterile Petri dishes overnight at room temperature to dry. Following this, 100 μl of mid-exponential phase culture of yeast was spread onto the surface of MEB, pH 7 plus 2% agarose plates and left to dry for 1 h at room temperature. MEB plates were made with 2% agarose rather than agar because the agar inhibited the action of the antimicrobial peptides. Discs containing the various antifungal combinations were then applied to the surface and the plates were incubated at 30° C. for 48 h. Images showing the zones of inhibition were obtained by scanning the plates using an ImageScanner (GE Healthcare UK Ltd, Chalfont St Giles, UK) with ImageMaster Labscan v 3.00 software (GE Healthcare UK Ltd). Images were annotated using Microsoft PhotoDraw.

yeast = test: Liquid culture assay of yeast growth inhibition, OD600 growth curves (FIG. 4); type: cell-based; details: sub-inhibitory peptide combined with sub-inhibitory caspofungin
Method: The lines represent: Blue—untreated yeast culture alone; Yellow—yeast culture in the presence of a subinhibitory concentration of caspofungin alone; Green—yeast culture in the presence of a subinhibitory concentration of an antimicrobial peptide alone; Red—culture in the presence of a combination of sub-inhibitory caspofungin with sub-inhibitory peptide.
Sterile MEB, pH 7 was added (300 μl) to each well of 48-well microtitre plate (Greiner Bio-one Ltd, Stonehouse, UK) followed by appropriate concentrations of each peptide alone, caspofungin alone and various combinations of peptides with caspofungin. The wells were then inoculated with mid-exponential phase yeast cultures to give starting cell numbers of 1000 cells per well. […] OD600 readings were taken every 15 minutes. Data was analysed in Microsoft Excel.

C. albicans SC5314 = type: cell-based, Candida albicans; details: RPMI-1640, <0.5 synergy, >4 antagonism, 0.5 to 4 no interaction
Method: (§1) 96-well micro-titre plate (Greiner Bio-one Ltd, Stonehouse, UK) wells were filled with 150 μl MEB or RPMI-1640, 2% MOPS (Sigma), pH 7 and concentrations of either peptides or caspofungin alone, or combinations of peptides with caspofungin. Approximately 500 cells from mid-exponential phase cultures of the yeast strains described above were then added to each well. Plates were incubated at 30° C. for 48 hours and scanned as described above.
(§2) Fractional inhibitory concentration (FIC) indices for combinations of caspofungin or anidulafungin with various antimicrobial peptides calculated from chequerboard assays of visible growth inhibition of three Candida strains tested in RPMI-1640. IC values highlighted in grey indicate combinations where no synergy was observed. Fractional Inhibitory Concentration (FIC)=[…] where <0.5 synergy, >4 antagonism and 0.5 to 4 no interaction. (Odds, F. C. (2003) Synergy, antagonism, and what the chequerboard puts between them. J. Antimic. Chemother.) N/A—not tested.

[2] = tested on: C. albicans (Hospital isolate); type: cell-based, Candida albicans; details: RPMI-1640, <0.5 synergy, >4 antagonism, 0.5 to 4 no interaction
Method: as §1, §2

[3] = tested on: C. glabrata (Hospital isolate); type: cell-based, Candida glabrata; details: RPMI-1640, <0.5 synergy, >4 antagonism, 0.5 to 4 no interaction
Method: as §1, §2

[4] = peptide applied together with caspofungin
[5] = substance alone, at the concentrations displayed
[6] = peptide combined with anidulafungin
[7] = peptide combined with caspofungin

CC[C@H](C)[C@H](NC(=O)[C@H](CCSC)NC(=O)[C@H](C)NC(=O)[C@@H]1CCCN1C(=O)[C@@H](NC(=O)[C@@H](NC(=O)[C@H](CCCCN)NC(=O)[C@@H](NC(=O)[C@H](CC(C)C)NC(=O)CNC(=O)CNC(=O)[C@H](CC(C)C)NC(=O)[C@@H](N)Cc1ccccc1)[C@@H](C)CC)[C@@H](C)CC)C(C)C)C(=O)N[C@H]1CSSC[C@@H](C(=O)O)NC(=O)[C@H](CCCCN)NC(=O)[C@H](CCCCN)NC(=O)[C@H]([C@@H](C)O)NC(=O)[C@H](C(C)C)NC(=O)[C@H](C)NC1=O [Ranalexin, ranalexin] (HELM PEPTIDE1{F.L.G.G.L.I.K.I.V.P.A.M.I.C.A.V.T.K.K.C}$PEPTIDE1,PEPTIDE1,14:R3-20:R3$$$V2.0; N-terminus and C-terminus assumed; bridges inferred)
zones of clearing around impregnated filter paper discs on agar plates [1, 4]: very clear zones of clearing
zones of clearing around impregnated filter paper discs on agar plates [1, 5]: minimal effect on yeast growth
yeast growth (OD600) over 24 h in microtitre plate wells (yeast): complete abolition of yeast growth

CC[C@H](C)C[C@H](C)CCCCCCCCC(=O)N[C@H]1C[C@@H](O)[C@@H](NCCN)NC(=O)[C@@H]2[C@@H](O)CCN2C(=O)[C@H]([C@H](O)CCN)NC(=O)[C@H]([C@H](O)[C@@H](O)c2ccc(O)cc2)NC(=O)[C@@H]2C[C@@H](O)CN2C(=O)[C@H]([C@@H](C)O)NC1=O [caspofungin, 1-[(4R,5S)-5[(2-aminoethyl)amino]-N^2-(10,12-dimethyl-1-oxotetradecyl)-4-hydroxy-L-ornithine]-5-[(3R)-3-hydroxy-L-ornithine]pneumocandin B0]
zones of clearing around impregnated filter paper discs on agar plates [1, 5]: no zones of clearing

ALWKNMLKGIGKLAGK [DsS3(1-16), dermaseptin S3(1-16)]
zones of clearing around impregnated filter paper discs on agar plates [1, 4]: Evident zones of clearing
zones of clearing around impregnated filter paper discs on agar plates [1, 5]: no zones of clearing visible
yeast growth (OD600) over 24 h in microtitre plate wells (yeast): complete abolition of yeast growth

Colistin sulfate
Fractional inhibitory concentration (FIC) index (C. albicans SC5314; [6]): 0.230
Fractional inhibitory concentration (FIC) index (C. albicans SC5314; [7]): 0.249

GIGKFLHSAKKFGKAFVGEIMNS [Magainin 2, magainin 2]
Fractional inhibitory concentration (FIC) index [2, 6]: 0.087
Fractional inhibitory concentration (FIC) index [2, 7]: 0.135
Fractional inhibitory concentration (FIC) index (C. albicans SC5314; [6]): 0.095
Fractional inhibitory concentration (FIC) index (C. albicans SC5314; [7]): 0.144
Fractional inhibitory concentration (FIC) index [3, 6]: 0.376
Fractional inhibitory concentration (FIC) index [3, 7]: 0.278
zones of clearing around impregnated filter paper discs on agar plates [1, 4]: very clear zones of clearing
zones of clearing around impregnated filter paper discs on agar plates [1, 5]: minimal effect on yeast growth
yeast growth (OD600) over 24 h in microtitre plate wells (yeast): complete abolition of yeast growth

Polymyxin B
Fractional inhibitory concentration (FIC) index (C. albicans SC5314; [6]): 0.590
Fractional inhibitory concentration (FIC) index (C. albicans SC5314; [7]): 0.310

From patent US20110281788A1, “ANTI FUNGAL THERAPY” (priority 2008, published 2011)
